Source: patent US7910751B2, “Heterocyclidene acetamide derivative” (Mochida Pharmaceutical Co., Ltd., priority 2005, dated 2011)

Target: T1, human TRPV1 (Homo sapiens, UniProt Q8NER1)
T1 construct: expressed in transfected cells; host or cells: CHO-K1
Experiment: Measurement of capsaicin-induced Ca influx in human TRPV1 transformed CHO cell line using FDSS-6000
Type: cell-based
Settings: concentration at which the capsaicin concentration-reaction curve is shifted two times to the right, human TRPV1 transformed CHO cells

T1 sequence (Q8NER1 whole entry): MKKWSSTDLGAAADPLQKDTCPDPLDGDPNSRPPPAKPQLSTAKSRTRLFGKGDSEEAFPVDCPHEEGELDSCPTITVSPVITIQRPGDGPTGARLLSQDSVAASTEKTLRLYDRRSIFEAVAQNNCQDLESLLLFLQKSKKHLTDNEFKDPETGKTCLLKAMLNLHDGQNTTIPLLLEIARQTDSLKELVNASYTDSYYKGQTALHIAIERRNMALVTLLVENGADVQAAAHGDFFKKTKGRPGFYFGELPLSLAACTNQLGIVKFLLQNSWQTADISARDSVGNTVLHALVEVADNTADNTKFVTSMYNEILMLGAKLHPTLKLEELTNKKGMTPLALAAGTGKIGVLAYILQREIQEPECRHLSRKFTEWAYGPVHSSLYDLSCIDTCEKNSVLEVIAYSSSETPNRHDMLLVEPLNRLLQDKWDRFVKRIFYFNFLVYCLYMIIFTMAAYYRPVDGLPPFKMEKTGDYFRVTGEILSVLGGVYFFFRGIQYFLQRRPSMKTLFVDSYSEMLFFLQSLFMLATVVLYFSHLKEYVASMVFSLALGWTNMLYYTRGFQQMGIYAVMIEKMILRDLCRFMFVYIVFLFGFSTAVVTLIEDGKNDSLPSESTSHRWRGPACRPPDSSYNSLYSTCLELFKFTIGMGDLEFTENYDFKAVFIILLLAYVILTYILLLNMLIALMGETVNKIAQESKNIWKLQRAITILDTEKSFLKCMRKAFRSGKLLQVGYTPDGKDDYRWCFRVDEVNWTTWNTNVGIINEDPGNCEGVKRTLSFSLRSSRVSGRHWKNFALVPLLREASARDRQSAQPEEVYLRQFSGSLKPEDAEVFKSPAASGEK

SMILES	A2 VALUE
O=CN1CC/C(=C\C(=O)Nc2cccc3c2CC(O)CC3)c2ccc(C(F)(F)F)cc21 (stereo not shown) [Example 114, (E)-2-(1-formyl-7-trifluoromethyl-2,3-dihydroquinolin-4(1H)-ylidene)-N-(7-hydroxy-5,6,7,8-tetrahydronaphthalen-1-yl)acetamide]	A (compounds of the present invention having an A2 value of less than 100 nM are represented by A)
O=C(/C=C1\CCN(C(=O)C2(F)CCCC2)c2cc(C(F)(F)F)ccc21)Nc1cccc2c1CC(O)CC2 (stereo not shown) [Example 115, (E)-2-(1-(1-fluorocyclopentanecarbonyl)-7-trifluoromethyl-2,3-dihydroquinolin-4(1H)-ylidene)-N-(7-hydroxy-5,6,7,8-tetrahydronaphthalen-1-yl)acetamide]	A (compounds of the present invention having an A2 value of less than 100 nM are represented by A)
CC(F)(F)CC(=O)N1CC/C(=C\C(=O)Nc2cccc3c2CC(O)CC3)c2ccc(C(F)(F)F)cc21 (stereo not shown) [Example 116, (E)-2-(1-(3,3-difluorobutanoyl)-7-trifluoromethyl-2,3-dihydroquinolin-4(1H)-ylidene)-N-(7-hydroxy-5,6,7,8-tetrahydronaphthalen-1-yl)acetamide]	A (compounds of the present invention having an A2 value of less than 100 nM are represented by A)
CCC(F)(F)CC(=O)N1CC/C(=C\C(=O)Nc2cccc3c2CC(O)CC3)c2ccc(C(F)(F)F)cc21 (stereo not shown) [Example 117, (E)-2-(1-(3,3-difluoropentanoyl)-7-trifluoromethyl-2,3-dihydroquinolin-4(1H)-ylidene)-N-(7-hydroxy-5,6,7,8-tetrahydronaphthalen-1-yl)acetamide]	A (compounds of the present invention having an A2 value of less than 100 nM are represented by A)
O=C(/C=C1\CCN(C(=O)C2CC(F)(F)C2)c2cc(C(F)(F)F)ccc21)Nc1cccc2c1CC(O)CC2 (stereo not shown) [Example 118, (E)-2-(1-(3,3-difluorocyclobutanecarbonyl)-7-trifluoromethyl-2,3-dihydroquinolin-4(1H)-ylidene)-N-(7-hydroxy-5,6,7,8-tetrahydronaphthalen-1-yl)acetamide]	A (compounds of the present invention having an A2 value of less than 100 nM are represented by A)
O=C1CCc2cccc(NC(=O)/C=C3\CCOc4cc(C(F)(F)F)ccc43)c2C1 [Example 119, (E)-N-(7-oxo-5,6,7,8-tetrahydronaphthalen-1-yl)-2-(7-trifluoromethyl-chroman-4-ylidene)acetamide]	A (compounds of the present invention having an A2 value of less than 100 nM are represented by A)
O=C(/C=C1\CCOc2cc(C(F)(F)F)ccc21)Nc1cccc2ccc(O)cc12 [Example 120, (E)-N-(7-hydroxynaphthalen-1-yl)-2-(7-trifluoromethyl-chroman-4-ylidene)acetamide]	A (compounds of the present invention having an A2 value of less than 100 nM are represented by A)
O=C(/C=C1\CCOc2cc(C(F)(F)F)ccc21)Nc1cccc2c1CC(O)C(=O)N2 (stereo not shown) [Example 121, (E)-N-(3-hydroxy-2-oxo-1,2,3,4-tetrahydroquinolin-5-yl)-2-(7-trifluoromethyl-chroman-4-ylidene)acetamide]	A (compounds of the present invention having an A2 value of less than 100 nM are represented by A)
O=C(/C=C1\CCOc2cc(C(F)(F)F)ccc21)Nc1cccc2c1CC(O)CN2 (stereo not shown) [Example 122, (E)-N-(3-hydroxy-1,2,3,4-tetrahydroquinolin-5-yl)-2-(7-trifluoromethyl-chroman-4-ylidene)acetamide]	A (compounds of the present invention having an A2 value of less than 100 nM are represented by A)
O=C(/C=C1\CCOc2cc(C(F)(F)F)ccc21)Nc1cccc2c1CC(O)CO2 (stereo not shown) [Example 125, (E)-N-(3-hydroxy-chroman-5-yl)-2-(7-trifluoromethyl-chroman-4-ylidene)acetamide]	A (compounds of the present invention having an A2 value of less than 100 nM are represented by A)
O=C(/C=C1\CCCOc2cc(C(F)(F)F)ccc21)Nc1cccc2cc(O)ccc12 [Example 126, (E)-N-(6-hydroxynaphthalen-1-yl)-2-(8-trifluoromethyl-3,4-dihydrobenzo[b]oxepin-5(2H)-ylidene)acetamide]	A (compounds of the present invention having an A2 value of less than 100 nM are represented by A)
CS(=O)(=O)O.O=C(/C=C1\CCCOc2cc(C(F)(F)F)ccc21)Nc1ccc2cccnc2c1 [Example 127, (E)-2-(8-trifluoromethyl-3,4-dihydrobenzo[b]oxepin-5(2H)-ylidene)-N-(quinolin-7-yl)acetamide methanesulfonate]	A (compounds of the present invention having an A2 value of less than 100 nM are represented by A)
O=C(/C=C1\CCCOc2cc(C(F)(F)F)ccc21)Nc1ccc2ccc(O)cc2c1 [Example 128, (E)-2-(8-trifluoromethyl-3,4-dihydrobenzo[b]oxepin-5(2H)-ylidene)-N-(7-hydroxynaphthalen-2-yl)acetamide]	A (compounds of the present invention having an A2 value of less than 100 nM are represented by A)
COc1ccc2cccc(NC(=O)/C=C3\CCCOc4cc(C(F)(F)F)ccc43)c2c1 [Example 129, (E)-2-(8-trifluoromethyl-3,4-dihydrobenzo[b]oxepin-5(2H)-ylidene)-N-(7-methoxynaphthalen-1-yl)acetamide]	B (compounds having an A2 value of 100 nM or more are represented by B)
COCCN1CCCc2ccc(NC(=O)/C=C3\CCCOc4cc(C(F)(F)F)ccc43)cc21 [Example 130, (E)-2-(8-trifluoromethyl-3,4-dihydrobenzo[b]oxepin-5(2H)-ylidene)-N-(1-(2-methoxyethyl)-1,2,3,4-tetrahydroquinolin-7-yl)acetamide]	A (compounds of the present invention having an A2 value of less than 100 nM are represented by A)
O=C(/C=C1\CCCOc2cc(C(F)(F)F)ccc21)Nc1ccc2c(c1)NC(=O)CC2 [Example 133, (E)-2-(8-trifluoromethyl-3,4-dihydrobenzo[b]oxepin-5(2H)-ylidene)-N-(3,4-dihydro-1H-quinolin-2-on-7-yl)acetamide]	A (compounds of the present invention having an A2 value of less than 100 nM are represented by A)
O=C(/C=C1\CCCOc2cc(C(F)(F)F)ccc21)Nc1ccc2ccc(=O)[nH]c2c1 [Example 134, (E)-2-(8-trifluoromethyl-3,4-dihydrobenzo[b]oxepin-5(2H)-ylidene)-N-(2-quinolon-7-yl)acetamide]	A (compounds of the present invention having an A2 value of less than 100 nM are represented by A)
COc1cc(NC(=O)/C=C2\CCCOc3cc(C(F)(F)F)ccc32)cc(C(F)(F)F)c1 [Example 135, (E)-2-(8-trifluoromethyl-3,4-dihydrobenzo[b]oxepin-5(2H)-ylidene)-N-(3-methoxy-5-(trifluoromethyl)phenyl)acetamide]	A (compounds of the present invention having an A2 value of less than 100 nM are represented by A)
O=C(/C=C1\CCCOc2cc(C(F)(F)F)ccc21)Nc1ccc(Cl)c(C(F)(F)F)c1 [Example 136, (E)-2-(8-trifluoromethyl-3,4-dihydrobenzo[b]oxepin-5(2H)-ylidene)-N-(4-chloro-3-(trifluoromethyl)phenyl)acetamide]	A (compounds of the present invention having an A2 value of less than 100 nM are represented by A)
